From patent US10906880B2, “Kind of isothiazole oxime ether-containing strobilurin derivatives and its preparation methods and application” (priority 2016, dated 2021)
Read-outs that look alike come from different tables or passages of the source.

Key:
Alternaria solani = assay: Fungicide activity, mycelial growth inhibition on PDA plate; type: cell-based; settings: Alternaria solani, read-out: Fungicidal activity inhibition, AS
Botrytis cinerea = assay: as above; type: cell-based; settings: Botrytis cinerea, read-out: Fungicidal activity inhibition, BC
Pellicularia sasakii = assay: as above; type: cell-based; settings: 50 μg/mL, P. sasakii; read-out: Fungicidal activity inhibition, PS
TMV [1] = assay: Anti-TMV activity on tobacco, protection mode; type: in vivo, tobacco mosaic virus; settings: 100 μg/mL; for inhibition at 100 µg/mL: Tobacco mosaic virus, read-out: Anti-TMV activity inhibition, Protection effect
Cercospora arachidicola = assay: Fungicide activity, mycelial growth inhibition on PDA plate; type: cell-based; settings: Mycosphaerella arachidis, read-out: Fungicidal activity inhibition, CA
TMV [2] = assay: Anti-TMV activity on tobacco, inactivation mode; type: in vivo, tobacco mosaic virus; settings: 100 μg/mL; for inhibition at 100 µg/mL: Tobacco mosaic virus, read-out: Anti-TMV activity inhibition, Inactivation effect
TMV [3] = assay: Anti-TMV activity on tobacco, curative mode; type: in vivo, tobacco mosaic virus; settings: for inhibition at 100 µg/mL: Tobacco mosaic virus, read-out: Anti-TMV activity inhibition, Curative effect
Physalospora piricola = assay: Fungicide activity, mycelial growth inhibition on PDA plate; type: cell-based; settings: 50 μg/mL, P. piricola; read-out: Fungicidal activity inhibition, PP
Rhizoctonia cerealis = assay: as above; type: cell-based; settings: Ceratobasidium cereale, read-out: Fungicidal activity inhibition, RC
Sclerotinia sclerotiorum = assay: as above; type: cell-based; settings: Sclerotinia sclerotiorum, read-out: Fungicidal activity inhibition, SS
[4] = tested on: Phytophthora infestans (Mont) de Bary; assay: microbe, parasite or virus in culture; type: cell-based; settings: for Fungicidal activity inhibition, PI: 50 μg/mL, P. infestans (Mont.) de Bary
TMV [5] = assay: Anti-TMV activity on tobacco, induction mode (systemic acquired resistance); type: in vivo, tobacco mosaic virus; settings: 100 μg/mL; for inhibition at 100 µg/mL: Tobacco mosaic virus, read-out: Anti-TMV activity inhibition, Induction effect

SMILES | inhibition at 50 µg/mL (Alternaria solani; 50 μg/mL, A. solani) [%] | inhibition at 50 µg/mL (Botrytis cinerea; 50 μg/mL, B. cinerea) [%] | inhibition at 50 µg/mL (Botrytis cinerea) [%] | inhibition at 50 µg/mL (Pellicularia sasakii) [%] | inhibition at 100 µg/mL (TMV [1]) [%] | inhibition at 50 µg/mL (Cercospora arachidicola; 50 μg/mL, C. arachidicola) [%] | inhibition at 50 µg/mL (Cercospora arachidicola) [%] | inhibition at 100 µg/mL (TMV [2]) [%] | melting point [°C] | inhibition at 50 µg/mL (Physalospora piricola) [%] | inhibition at 50 µg/mL (Rhizoctonia cerealis; 50 μg/mL, R. cerealis) [%] | inhibition at 50 µg/mL (Rhizoctonia cerealis) [%] | inhibition at 50 µg/mL (Sclerotinia sclerotiorum; 50 μg/mL, S. sclerotiorum) [%] | inhibition at 50 µg/mL (Sclerotinia sclerotiorum) [%] | Fungicidal activity inhibition, PI [4] [%] | other results
CO/N=C(/C(=O)NCC(F)F)c1ccccc1CO/N=C(\C)c1snc(Cl)c1Cl [CL04-22A] | 37.1 | 53.9 | > 45 | 20 | 30.7 ± 2.06 | 42.9 | > 30 | > 30 | 78 to 80 | 40.4 | 87.7 | > 50 | 84 | > 40 |  | inhibition at 50 µg/mL (Alternaria solani): > 30%; inhibition at 100 µg/mL (TMV [3]; 100 μg/mL, tobacco): 23.4 ± 5.58%
CO/N=C(/C(=O)NC1CC1)c1ccccc1CO/N=C(\C)c1snc(Cl)c1Cl [CL04-22C] | 27.9 | 47.4 | > 45 | 56.8 | 23.6 ± 0.57 | 44 | > 30 | 4.44 ± 0.85 | 115 to 117 | 61.4 | 61 | > 50 | 80 | > 40 | 100 | inhibition at 100 µg/mL (TMV [3]; 100 μg/mL, tobacco): 4.62 ± 0.55%
C#CCNC(=O)/C(=N/OC)c1ccccc1CO/N=C(\N)c1snc(Cl)c1Cl [CL04-25A] | 8.2 | 42.1 |  | 46 | > 40 | 20 |  | 0 | 106 to 108 | 19.3 | 65.8 | > 50 | 46.7 | > 40 | 100 | 
C#CCNC(=O)/C(=N/OC)c1ccccc1CO/N=C(C)/C=C/c1snc(Cl)c1Cl [CL04-32B] | 41 | 47.4 | > 45 | 78.4 | 23.4 ± 1.02 | 52 | > 30 |  | 92 to 93 | 64.9 | 100 |  | 80 | > 40 | 100 | inhibition at 50 µg/mL (Alternaria solani): > 30%
CO/N=C(/C(=O)N[C@H](C)CSC)c1ccccc1CO/N=C(C)/C=C/c1snc(Cl)c1Cl [CL04-32F] | 12.7 | 42.9 |  | 21.2 | > 40 | 12.5 |  | 7.71 ± 1.42 |  | 58 | 62 | > 50 | 52.9 | > 40 |  | inhibition at 50 µg/mL ([4]; Phytophthora infestans, read-out: Fungicidal activity inhibition, PI, 50 μg/mL, P. infestans (Mont.) de Bary): 20%
N#Cc1ccccc1NC(=O)c1snc(Cl)c1Cl [Isotianil, reference compound] |  |  |  |  |  |  |  |  |  |  |  |  |  |  |  | Anti-TMV activity inhibition, Protection effect (TMV [1]): 24.80 ± 5.85%; Anti-TMV activity inhibition, Inactivation effect (TMV [2]): 20.77 ± 7.30%; Anti-TMV activity inhibition, Curative effect (TMV [3]; 100 μg/mL, tobacco): 27.31 ± 2.12%; Anti-TMV activity inhibition, Induction effect (TMV [5]): 44.44 ± 5.18%
CNCC(=O)N[C@@H](CO)C(=O)N[C@H]1[C@H](O)[C@@H](O)[C@H](n2ccc(N)nc2=O)O[C@@H]1C(N)=O [Ningnanmycin, reference compound] |  |  |  |  |  |  |  |  |  |  |  |  |  |  |  | inhibition at 100 µg/mL (TMV [3]): 74.1 ± 2.04%
NC(=O)c1ncn([C@@H]2O[C@H](CO)[C@@H](O)[C@H]2O)n1 [Ribavirin, reference compound] |  |  |  |  |  |  |  | 78 ± 1 |  |  |  |  |  |  |  | 
Nc1ccc(S(=O)(=O)Nc2nccs2)cc1 [SZG-7, reference compound] |  |  |  |  |  |  |  |  |  |  |  |  |  |  |  | inhibition at 100 µg/mL (TMV [5]): 79 ± 2.27%
Cc1ccc(NC(=O)c2snnc2C)cc1Cl [TDL, Tiadinil, reference compound] |  |  |  |  |  |  |  |  |  |  |  |  |  |  |  | inhibition at 100 µg/mL (TMV [5]): 65 ± 2%
